{"source": "patent US20240132484A1", "about": "“BROAD SPECTRUM ANTIVIRAL COMPOUNDS TARGETING THE SKI COMPLEX” (priority 2020, published 2024)", "key": {"WDR61": {"biological_target": "WDR61 (Homo sapiens, UniProt Q9GZS3)", "assay": "Surface Plasmon Resonance with pure WDR61 protein"}, "SARS2": {"test_system": "SARS2", "assay_type": "cell-based, SARS-CoV-2", "settings": "for Percentage Infection Relative to Appropriate DMSO Control / Infection Data: Percentage Infection Relative to Appropriate DMSO Control / Percentage Infection Relative to Appropriate DMSO Control, Mean / Infection Data, Percentage Infection Relative to Appropriate DMSO Control: avg background subtraction; for Infection Data: Percentage Infection Relative to Appropriate DMSO Control: replicate wells; for Infection Data: Average, Mean: average of Exp 1-3 (SMW475, SMW477, SMW478), n 9; for Infection Data, Average, Mean percentage infection relative to DMSO control: Average of Exp 1 (SMW491) and Exp 2 (SMW492); for Percentage Infection Relative to Appropriate DMSO Control, Mean: Average of Exp 1 and Exp 2, n=4; for Infection Data, Percentage Infection Relative to Appropriate DMSO Control: single well"}}, "note": "Values joined by “and” are separate entries in the source; they are usually repeats but may differ in a detail not shown here. Identical values can stand only once. Like-named read-outs stand apart in the source and are kept apart here."}
{"smiles": "COc1ccc(CNCCc2ccccc2F)c(OCC(O)CN2CCN(C)CC2)c1", "note": "(racemic) [UMB18G]", "values": [{"measurement": "direct binding to WDR61 by SPR", "setting": "WDR61", "value": "binding directly to WDR61"}, {"measurement": "Percentage Infection Relative to Appropriate DMSO Control", "setting": "SARS2; 1 uM, Exp 1 (SMW454), single wells", "value": "79.68% and 100.00% and 102.30%"}, {"measurement": "Infection Data: Percentage Infection Relative to Appropriate DMSO Control", "setting": "SARS2; 1 uM, Exp 1 (SMW475)", "value": "59.52% and 81.22% and 48.39%"}, {"measurement": "Infection Data: Percentage Infection Relative to Appropriate DMSO Control", "setting": "SARS2; 1 uM, Exp 2 (SMW477)", "value": "30.54% and 44.61% and 49.97%"}, {"measurement": "Infection Data: Percentage Infection Relative to Appropriate DMSO Control", "setting": "SARS2; 1 uM, Exp 3 (SMW478)", "value": "92.92% and 83.96% and 93.97%"}, {"measurement": "Infection Data: Average, Mean", "setting": "SARS2; 1 uM", "value": 65.01, "unit": "%"}, {"measurement": "Percentage Infection Relative to Appropriate DMSO Control", "setting": "SARS2; 5 uM, Exp 1 (SMW454), single wells", "value": "82.33% and 99.01% and 94.32%"}, {"measurement": "Infection Data: Percentage Infection Relative to Appropriate DMSO Control", "setting": "SARS2; 5 uM, Exp 1 (SMW475)", "value": "11.41% and 21.71% and 5.92%"}, {"measurement": "Infection Data: Percentage Infection Relative to Appropriate DMSO Control", "setting": "SARS2; 5 uM, Exp 2 (SMW477)", "value": "9.13% and 26.77% and 20.94%"}, {"measurement": "Infection Data: Percentage Infection Relative to Appropriate DMSO Control", "setting": "SARS2; 5 uM, Exp 3 (SMW478)", "value": "28.65% and 43.74% and 34.06%"}, {"measurement": "Infection Data: Average, Mean", "setting": "SARS2; 5 uM", "value": 22.48, "unit": "%"}, {"measurement": "Percentage Infection Relative to Appropriate DMSO Control", "setting": "SARS2; 10 uM, Exp 1 (SMW454), single wells", "value": "84.64% and 105.70% and 105.02%"}, {"measurement": "Infection Data: Percentage Infection Relative to Appropriate DMSO Control", "setting": "SARS2; 10 uM, Exp 1 (SMW475)", "value": "7.16% and 14.38% and 4.59%"}, {"measurement": "Infection Data: Percentage Infection Relative to Appropriate DMSO Control", "setting": "SARS2; 10 uM, Exp 2 (SMW477)", "value": "10.76% and 16.40% and 10.07%"}, {"measurement": "Infection Data: Percentage Infection Relative to Appropriate DMSO Control", "setting": "SARS2; 10 uM, Exp 3 (SMW478)", "value": "46.05% and 27.62% and 30.93%"}, {"measurement": "Infection Data: Average, Mean", "setting": "SARS2; 10 uM", "value": 18.66, "unit": "%"}, {"measurement": "Percentage Infection Relative to Appropriate DMSO Control", "setting": "SARS2; 25 uM, Exp 1 (SMW454), single wells", "value": "54.89% and 58.50% and 60.94%"}, {"measurement": "Infection Data: Percentage Infection Relative to Appropriate DMSO Control", "setting": "SARS2; 25 uM, Exp 1 (SMW475)", "value": "0.07% and −0.35% and −1.40%"}, {"measurement": "Infection Data: Percentage Infection Relative to Appropriate DMSO Control", "setting": "SARS2; 25 uM, Exp 2 (SMW477)", "value": "1.11% and 0.67% and 1.76%"}, {"measurement": "Infection Data: Percentage Infection Relative to Appropriate DMSO Control", "setting": "SARS2; 25 uM, Exp 3 (SMW478)", "value": "3.99% and 4.14% and 2.78%"}, {"measurement": "Infection Data: Average, Mean", "setting": "SARS2; 25 uM", "value": 1.42, "unit": "%"}, {"measurement": "Percentage Infection Relative to Appropriate DMSO Control", "setting": "SARS2; 50 uM, Exp 1 (SMW454), single wells", "value": "28.95% and 40.45% and 40.98%"}, {"measurement": "Infection Data: Percentage Infection Relative to Appropriate DMSO Control", "setting": "SARS2; 50 uM, Exp 1 (SMW475)", "value": "−0.48% and −1.48% and 0.34%"}, {"measurement": "Infection Data: Percentage Infection Relative to Appropriate DMSO Control", "setting": "SARS2; 50 uM, Exp 2 (SMW477)", "value": "1.36% and 0.07% and 1.60%"}, {"measurement": "Infection Data: Percentage Infection Relative to Appropriate DMSO Control", "setting": "SARS2; 50 uM, Exp 3 (SMW478)", "value": "0.69% and 2.33% and 1.45%"}, {"measurement": "Infection Data: Average, Mean", "setting": "SARS2; 50 uM", "value": 0.65, "unit": "%"}, {"measurement": "Infection Data, Average, Mean percentage infection relative to DMSO control", "setting": "SARS2; n=4, 1 uM", "value": "65.84% and 39.37% and 49.93% and 57.24%"}, {"measurement": "Infection Data, Average, Mean percentage infection relative to DMSO control", "setting": "SARS2; n=4, 5 uM", "value": "54.32% and 40.70% and 42.82% and 28.04%"}, {"measurement": "Infection Data, Average, Mean percentage infection relative to DMSO control", "setting": "SARS2; n=4, 10 uM", "value": "8.53% and 5.08% and 5.96% and 7.33%"}, {"measurement": "Infection Data, Average, Mean percentage infection relative to DMSO control", "setting": "SARS2; n=4, 25 uM", "value": "11.20% and 7.36% and 4.36% and 11.41%"}, {"measurement": "Infection Data, Average, Mean percentage infection relative to DMSO control", "setting": "SARS2; n=4, 50 uM", "value": "8.04% and 0.83% and 7.39% and 10.06%"}, {"measurement": "Infection Data, Average, Mean", "setting": "SARS2; Average of Exp 1-3, n 9, 1 uM", "value": 79.70, "unit": "%"}, {"measurement": "Infection Data, Average, Mean", "setting": "SARS2; Average of Exp 1-3, n 9, 5 uM", "value": 44.64, "unit": "%"}, {"measurement": "Infection Data, Average, Mean", "setting": "SARS2; Average of Exp 1-3, n 9, 10 uM", "value": 52.11, "unit": "%"}, {"measurement": "Infection Data, Average, Mean", "setting": "SARS2; Average of Exp 1-3, n 9, 25 uM", "value": 19.49, "unit": "%"}, {"measurement": "Infection Data, Average, Mean", "setting": "SARS2; Average of Exp 1-3, n 9, 50 uM", "value": 11.46, "unit": "%"}, {"measurement": "Percentage Infection Relative to Appropriate DMSO Control, Mean", "setting": "SARS2; 1 uM", "value": "59.34% and 41.11%"}, {"measurement": "Percentage Infection Relative to Appropriate DMSO Control, Mean", "setting": "SARS2; 5 uM", "value": "26.29% and 13.69%"}, {"measurement": "Percentage Infection Relative to Appropriate DMSO Control, Mean", "setting": "SARS2; 10 uM", "value": "6.07% and 4.47%"}, {"measurement": "Percentage Infection Relative to Appropriate DMSO Control, Mean", "setting": "SARS2; 25 uM", "value": "3.40% and 3.46%"}, {"measurement": "Percentage Infection Relative to Appropriate DMSO Control, Mean", "setting": "SARS2; 50 uM", "value": "2.64% and 2.63%"}, {"measurement": "Infection Data, Percentage Infection Relative to Appropriate DMSO Control", "setting": "SARS2; Exp 1 (SMW491), 10 uM", "value": "5.19% and 1.05% and 0.23% and 2.20% and 5.21% and 4.17% and 3.28% and 4.40%"}, {"measurement": "Percentage Infection Relative to Appropriate DMSO Control", "setting": "SARS2; Exp 1 (SMW506), 10 uM, single wells", "value": "6.99% and 10.55% and 9.19% and 3.42%"}, {"measurement": "Percentage Infection Relative to Appropriate DMSO Control", "setting": "SARS2; Exp 1 (SMW506), 25 uM, single wells", "value": "4.49% and 2.30% and 4.05% and 3.63%"}, {"measurement": "Percentage Infection Relative to Appropriate DMSO Control", "setting": "SARS2; Exp 1 (SMW506), 50 uM, single wells", "value": "4.22% and 4.54% and 5.07% and 2.41%"}, {"measurement": "Percentage Infection Relative to Appropriate DMSO Control", "setting": "SARS2; Exp 2 (SMW466), 10 uM", "value": "10.03% and 6.17% and 9.36%"}, {"measurement": "Percentage Infection Relative to Appropriate DMSO Control", "setting": "SARS2; Exp 2 (SMW466), 25 uM", "value": "−0.69% and −1.02% and −1.54%"}, {"measurement": "Percentage Infection Relative to Appropriate DMSO Control", "setting": "SARS2; Exp 2 (SMW466), 50 uM", "value": "−0.97% and −1.80% and 1.96%"}, {"measurement": "Infection Data, Percentage Infection Relative to Appropriate DMSO Control", "setting": "SARS2; Exp 2 (SMW492), 1 uM", "value": "87.68% and 68.32% and 72.99% and 69.05% and 75.23% and 75.22% and 50.23% and 54.62%"}, {"measurement": "Infection Data, Percentage Infection Relative to Appropriate DMSO Control", "setting": "SARS2; Exp 2 (SMW492), 10 uM", "value": "15.18% and 12.71% and 12.92% and 8.48% and 10.42% and 9.51% and 5.72% and 6.91%"}, {"measurement": "Percentage Infection Relative to Appropriate DMSO Control", "setting": "SARS2; Exp 2 (SMW492), 1 uM, single wells", "value": "34.50% and 31.39% and 22.69% and 24.33%"}, {"measurement": "Percentage Infection Relative to Appropriate DMSO Control", "setting": "SARS2; Exp 2 (SMW492), 5 uM, single wells", "value": "5.38% and 4.98% and 4.24% and 4.87%"}, {"measurement": "Percentage Infection Relative to Appropriate DMSO Control", "setting": "SARS2; Exp 2 (SMW492), 10 uM, single wells", "value": "3.43% and 3.30% and 3.52% and 1.74%"}, {"measurement": "Percentage Infection Relative to Appropriate DMSO Control", "setting": "SARS2; Exp 2 (SMW492), 25 uM, single wells", "value": "4.70% and 2.08% and 5.51% and 0.65%"}]}
